Data taken from PubChem BioAssay AID1963420 (Molecular Pharmacology Branch, DTP, NCI, 2024).

Tested on: 494315-158-R-J1-PDC complex spheroid growth, percent test/control
Test: Anticancer human tumor 494315-158-R-J1-PDC patient-derived soft tissue sarcoma cell line growth inhibition [Asc]
Conditions: for IC50: curve of first compound; for viability, T/C: stronger effect = lower value; active = viability on the fitted dose curve at most 10% of control; inactive = the rest
Outline: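 Complex solid-tumor spheroids incorporating human endothelial and mesenchymal stem cells received single agents or combinations over half-log dilution ranges anchored to clinical Cmax.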
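Also: compound exposure lasted seven days after spheroids formed for three days.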

NC(=O)C(=Cn1cnc(-c2cc(C(F)(F)F)cc(C(F)(F)F)c2)n1)c1cncnc1 + Cc1c(S(C)(=O)=O)c(-c2cc(F)cc(N3CCN(c4ccc(NS(=O)(=O)c5ccc(NC(CCN6CCC(C(=O)OCCCP(=O)(O)O)CC6)CSc6ccccc6)c(S(=O)(=O)C(F)(F)F)c5)cc4)CC3)c2)c(-c2ccc(Cl)cc2)n1C(C)C
active: viability, T/C (second compound 0.1 µM, first compound 0.3 µM) 6.1% | viability, T/C (second compound 0.316 µM, first compound 0.3 µM) 4.23% | viability, T/C (second compound 1 µM, first compound 0.3 µM) 4.03% | viability, T/C (second compound 3.16 µM, first compound 0.3 µM) 2.93% | viability, T/C (second compound 10 µM, first compound 0.3 µM) 2.12%
0.0232 µM: IC50 (second compound 0.1 µM)
0.00319 µM: IC50 (second compound 3.16 µM)
0.0101 µM: IC50 (second compound 10 µM)
inactive: viability, T/C (second compound 0.1 µM, first compound 0.000949 µM) 79.5% | viability, T/C (second compound 0.1 µM, first compound 0.003 µM) 82.6% | viability, T/C (second compound 0.1 µM, first compound 0.00949 µM) 66.8% | viability, T/C (second compound 0.1 µM, first compound 0.03 µM) 44.9% | viability, T/C (second compound 0.1 µM, first compound 0.0949 µM) 19.2% | viability, T/C (second compound 0.316 µM, first compound 0.000949 µM) 72.7% | viability, T/C (second compound 0.316 µM, first compound 0.003 µM) 65.4% | viability, T/C (second compound 0.316 µM, first compound 0.00949 µM) 51.3% | viability, T/C (second compound 0.316 µM, first compound 0.03 µM) 40.7% | viability, T/C (second compound 0.316 µM, first compound 0.0949 µM) 23.2% | viability, T/C (second compound 1 µM, first compound 0.000949 µM) 53.7% | viability, T/C (second compound 1 µM, first compound 0.003 µM) 57.8% | viability, T/C (second compound 1 µM, first compound 0.00949 µM) 46.2% | viability, T/C (second compound 1 µM, first compound 0.03 µM) 35.1% | viability, T/C (second compound 1 µM, first compound 0.0949 µM) 16.3% | viability, T/C (second compound 3.16 µM, first compound 0.000949 µM) 52.2% | viability, T/C (second compound 3.16 µM, first compound 0.003 µM) 52.2% | viability, T/C (second compound 3.16 µM, first compound 0.00949 µM) 41.8% | viability, T/C (second compound 3.16 µM, first compound 0.03 µM) 24% | viability, T/C (second compound 3.16 µM, first compound 0.0949 µM) 12.9% | viability, T/C (second compound 10 µM, first compound 0.000949 µM) 67.4% | viability, T/C (second compound 10 µM, first compound 0.003 µM) 58% | viability, T/C (second compound 10 µM, first compound 0.00949 µM) 54.7% | viability, T/C (second compound 10 µM, first compound 0.03 µM) 29.2% | viability, T/C (second compound 10 µM, first compound 0.0949 µM) 14.8%
0.00667 µM: IC50 (second compound 1 µM)
0.0124 µM: IC50 (second compound 0.316 µM)

NC1CCC(NC2CC2c2ccccc2)CC1 (stereo not given) + CCN1C(C(=O)NC23CCC(C(=O)O)(CC2)CC3)C(c2cccc(Cl)c2F)C2(C(=O)Nc3cc(Cl)ccc32)C12CCCCC2
> 0.1 µM: IC50 (second compound 0.03 µM) | IC50 (second compound 0.0949 µM) | IC50 (second compound 0.3 µM) | IC50 (second compound 0.949 µM) | IC50 (second compound 3 µM)
inactive: viability, T/C (second compound 0.03 µM, first compound 0.000316 µM) 95.8% | viability, T/C (second compound 0.03 µM, first compound 0.001 µM) 95.3% | viability, T/C (second compound 0.03 µM, first compound 0.00316 µM) 89.8% | viability, T/C (second compound 0.03 µM, first compound 0.01 µM) 85.2% | viability, T/C (second compound 0.03 µM, first compound 0.0316 µM) 112% | viability, T/C (second compound 0.03 µM, first compound 0.1 µM) 97.9% | viability, T/C (second compound 0.0949 µM, first compound 0.000316 µM) 99.7% | viability, T/C (second compound 0.0949 µM, first compound 0.001 µM) 93.4% | viability, T/C (second compound 0.0949 µM, first compound 0.00316 µM) 99% | viability, T/C (second compound 0.0949 µM, first compound 0.01 µM) 104% | viability, T/C (second compound 0.0949 µM, first compound 0.0316 µM) 92.5% | viability, T/C (second compound 0.0949 µM, first compound 0.1 µM) 95% | viability, T/C (second compound 0.3 µM, first compound 0.000316 µM) 96.6% | viability, T/C (second compound 0.3 µM, first compound 0.001 µM) 91.3% | viability, T/C (second compound 0.3 µM, first compound 0.00316 µM) 94.7% | viability, T/C (second compound 0.3 µM, first compound 0.01 µM) 88.7% | viability, T/C (second compound 0.3 µM, first compound 0.0316 µM) 96.5% | viability, T/C (second compound 0.3 µM, first compound 0.1 µM) 82.2% | viability, T/C (second compound 0.949 µM, first compound 0.000316 µM) 91% | viability, T/C (second compound 0.949 µM, first compound 0.001 µM) 91.5% | viability, T/C (second compound 0.949 µM, first compound 0.00316 µM) 85.7% | viability, T/C (second compound 0.949 µM, first compound 0.01 µM) 87.5% | viability, T/C (second compound 0.949 µM, first compound 0.0316 µM) 90.9% | viability, T/C (second compound 0.949 µM, first compound 0.1 µM) 92.1% | viability, T/C (second compound 3 µM, first compound 0.000316 µM) 98.3% | viability, T/C (second compound 3 µM, first compound 0.001 µM) 98% | viability, T/C (second compound 3 µM, first compound 0.00316 µM) 93.7% | viability, T/C (second compound 3 µM, first compound 0.01 µM) 91% | viability, T/C (second compound 3 µM, first compound 0.0316 µM) 83.6% | viability, T/C (second compound 3 µM, first compound 0.1 µM) 96.6%

O=C(c1ccc(F)c(F)c1Nc1ccc(I)cc1F)N1CC(O)([C@@H]2CCCCN2)C1 + CNC(C)C(=O)NC1CN(S(=O)(=O)c2cccc(S(=O)(=O)N3CCC4CCC(C(=O)NC(c5ccccc5)c5ccccc5)N4C(=O)C(NC(=O)C(C)NC)C3)c2)CCC2CCC(C(=O)NC(c3ccccc3)c3ccccc3)N2C1=O
0.927 µM: IC50 (second compound 0.0316 µM)
< 0.00316 µM: IC50 (second compound 0.316 µM) | IC50 (second compound 1 µM)
> 1 µM: IC50 (second compound 0.01 µM) | IC50 (second compound 0.1 µM)
inactive: viability, T/C (second compound 0.01 µM, first compound 0.00316 µM) 83.5% | viability, T/C (second compound 0.01 µM, first compound 0.01 µM) 75.5% | viability, T/C (second compound 0.01 µM, first compound 0.0316 µM) 85.8% | viability, T/C (second compound 0.01 µM, first compound 0.1 µM) 96.7% | viability, T/C (second compound 0.01 µM, first compound 0.316 µM) 97.3% | viability, T/C (second compound 0.01 µM, first compound 1 µM) 62.9% | viability, T/C (second compound 0.0316 µM, first compound 0.00316 µM) 72.8% | viability, T/C (second compound 0.0316 µM, first compound 0.01 µM) 68.3% | viability, T/C (second compound 0.0316 µM, first compound 0.0316 µM) 74.3% | viability, T/C (second compound 0.0316 µM, first compound 0.1 µM) 93.1% | viability, T/C (second compound 0.0316 µM, first compound 0.316 µM) 87.8% | viability, T/C (second compound 0.0316 µM, first compound 1 µM) 47.9% | viability, T/C (second compound 0.1 µM, first compound 0.00316 µM) 53.2% | viability, T/C (second compound 0.1 µM, first compound 0.01 µM) 61.4% | viability, T/C (second compound 0.1 µM, first compound 0.0316 µM) 65.8% | viability, T/C (second compound 0.1 µM, first compound 0.1 µM) 87.5% | viability, T/C (second compound 0.1 µM, first compound 0.316 µM) 92.7% | viability, T/C (second compound 0.1 µM, first compound 1 µM) 59.9% | viability, T/C (second compound 0.316 µM, first compound 0.00316 µM) 46.7% | viability, T/C (second compound 0.316 µM, first compound 0.01 µM) 60.3% | viability, T/C (second compound 0.316 µM, first compound 0.0316 µM) 57.2% | viability, T/C (second compound 0.316 µM, first compound 0.1 µM) 67.5% | viability, T/C (second compound 0.316 µM, first compound 0.316 µM) 72.2% | viability, T/C (second compound 0.316 µM, first compound 1 µM) 58.3% | viability, T/C (second compound 1 µM, first compound 0.00316 µM) 47.9% | viability, T/C (second compound 1 µM, first compound 0.01 µM) 52% | viability, T/C (second compound 1 µM, first compound 0.0316 µM) 67.1% | viability, T/C (second compound 1 µM, first compound 0.1 µM) 66.3% | viability, T/C (second compound 1 µM, first compound 0.316 µM) 76.2% | viability, T/C (second compound 1 µM, first compound 1 µM) 46.7%
